Results published in patent publication US5077286A, “Beta-lactam derivatives of the 4-acylcephem sulphone and 3-acylpenam sulphone-type” (Farmitalia Carlo Erba S.r.l., priority 1988, dated 1991).

Key:
[1] = Chemical stability at 37° C., 0.05M pH 7.4 phosphate buffer (HPLC, time course of starting material depletion); assay type: physicochemical; details: 0.05m phosphate buffer, 5% DMSO, 10 mM initial conc., read-out: Chemical stability t1/2 (converted)
Method: (a) Chemical stability at 37° C., 0.05M pH 7.4 phosphate buffer (5% DMSO as solubilizing vehicle) was determined by following the time course of starting material depletion ([…] kinetics; 10 mM initial conc.) by HPLC analysis (stationary phase Whatman Partisphere 5 C18, 110×4.7 mm i.d., mobile phase A, pH 2.5 0.1M phosphate buffer; mobile phase B, 60:40 phase A/MeCN; UV detection at λ=254 nm;

[2] = target: T1, human leukocyte elastase (HLE) (Homo sapiens, UniProt P08246); test: HLE-inhibition kinetic parameters (fluorescence, release of 7-amino-4-methylcoumarin from peptide substrate); assay type: biochemical; details: 37° C., 0.027M pH 7.4 phosphate buffer, 1% DMSO, 1% MeCN, NaCl (I=0.15); for Ki: read-out: HLE-inhibition kinetic parameters: Ki^ss (apparent dissociation constant of HLE-inhibitor complex at steady state); for koff: read-out: HLE-inhibition kinetic parameters: Koff (dissociation rate); for kon: read-out: HLE-inhibition kinetic parameters: Kon (rate of formation of the HLE complex)
T1 construct: purchased Calbiochem Lot 702738
T1 sequence (P08246 30-267): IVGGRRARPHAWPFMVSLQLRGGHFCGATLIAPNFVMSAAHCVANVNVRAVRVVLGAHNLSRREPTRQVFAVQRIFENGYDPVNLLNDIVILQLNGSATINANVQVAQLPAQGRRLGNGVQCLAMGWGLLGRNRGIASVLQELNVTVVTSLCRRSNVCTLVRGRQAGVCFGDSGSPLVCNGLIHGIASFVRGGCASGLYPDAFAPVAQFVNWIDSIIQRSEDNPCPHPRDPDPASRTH
Method: (b) Kinetic parameters of HLE (Calbiochem. Lot 702738) were determined at 37° C., 0.027M pH 7.4 phosphate buffer, 1% DMSO, 1% MeCN, NaCl (I=0.15), by monitoring the release of 7-amino-4-methylcoumarin (fluorence detection) from N-methoxysuccinyl-alanyl-propyl-valyl-7-amido-4-methylcoumarin as the substrate, according to the equations: [formula] wherein: [P], [I], [S]=product, inhibitor, and substrate concentration
Km=Michaelis constant for the enzyme-substrate pair (independently determined under the same experimental conditions).

Row | Structure (SMILES) | half-life at 10000 µM [1] [h] | Ki [2] [nM] | koff [2] [s⁻¹] | kon [2] [M⁻¹ s⁻¹]
1 | CO[C@H]1C(=O)N2C(C(=O)C(C)(C)C)=C(COC(C)=O)CS(=O)(=O)[C@H]12 [Compound 51, 3-Acetoxymethyl-4-tert-butylcarbonyl-(7α)-methoxy-3-cephem 1,1-dioxide] | 19.3 | 11 | 0.0026 | 20000
2 | CO[C@H]1C(=O)N2C(C(=O)OC(C)(C)C)=C(COC(C)=O)CS(=O)(=O)[C@H]12 [Reference] | 3.2 | 18.4 | 0.0035 | 9000
